Five compounds from patent US20030224978A1, “Compounds and methods for modulating apoptosis” (McGill University, priority 1996, published 2003) can be followed below.

By inhibition is commonly meant the relative decrease from the control value, in per cent. What is called IC50 is the concentration that gives 50% inhibition. One may read the EC50 as the concentration needed to bring the measured effect to its halfway point. A low value points to a more potent agent.

Entries after “also recorded” stand apart in the source; their conditions may differ. Positions of bridges follow the written chain, without caps; N, C: chain ends. Residues, ends and D or L forms follow the SMILES beside them.

The target of one data set is T1, chick N-cadherin (Gallus gallus, UniProt P10288).
T1 construct: expressed in transfected cells; host or cells: 3T3 fibroblasts
T1 sequence (P10288 165-912): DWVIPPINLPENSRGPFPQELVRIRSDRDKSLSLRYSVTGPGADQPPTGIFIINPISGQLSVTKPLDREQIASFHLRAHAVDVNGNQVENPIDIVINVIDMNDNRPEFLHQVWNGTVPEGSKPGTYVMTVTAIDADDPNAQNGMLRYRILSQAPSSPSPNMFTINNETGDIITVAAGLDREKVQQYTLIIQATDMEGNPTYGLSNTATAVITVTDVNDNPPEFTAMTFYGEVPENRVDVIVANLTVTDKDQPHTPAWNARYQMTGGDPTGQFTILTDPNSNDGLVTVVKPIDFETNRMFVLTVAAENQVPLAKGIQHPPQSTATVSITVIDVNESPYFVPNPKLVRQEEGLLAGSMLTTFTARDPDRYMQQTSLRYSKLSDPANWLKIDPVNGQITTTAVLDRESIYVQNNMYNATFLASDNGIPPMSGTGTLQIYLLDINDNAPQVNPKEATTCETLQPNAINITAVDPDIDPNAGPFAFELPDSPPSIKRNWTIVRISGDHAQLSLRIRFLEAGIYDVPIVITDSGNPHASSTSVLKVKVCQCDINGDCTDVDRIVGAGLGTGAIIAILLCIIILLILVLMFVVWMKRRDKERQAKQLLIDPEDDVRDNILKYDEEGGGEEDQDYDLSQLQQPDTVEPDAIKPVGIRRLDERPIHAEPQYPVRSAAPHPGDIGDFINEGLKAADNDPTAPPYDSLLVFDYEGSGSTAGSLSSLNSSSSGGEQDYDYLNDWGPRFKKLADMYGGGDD
As to the kind of experiment: N-cadherin dependent neurite outgrowth of rat cerebellar neurons on N-cadherin expressing 3T3 cells (Example 14). It is filed as cell-based. Particulars: for inhibitory activity on N-cadherin dependent neurite outgrowth, in words: Tables 8 and 9, 250 or 125 μg/mL.

Another data set can be described thus: in vitro. It is filed as cell-based. Particulars: human. The method, boiled down:
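Cytotoxicity assessed by MTT assay and proliferation by ³H-thymidine incorporation, with peptides tested at concentrations up to 100 μM.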

The subject of data set [1] is bovine pulmonary artery endothelial cells. As to the kind of experiment: Disruption of bovine endothelial cell adhesion. It is filed as cell-based. Particulars: 500 μg/ml, 30 minutes. As for the experimental part:
For use within one such assay, bovine pulmonary artery endothelial cells may be harvested by sterile ablation and digestion in 0.1% collagenase (type II; Worthington Enzymes, Freehold, N.J.). Cells may be maintained in Dulbecco's minimum essential medium supplemented with 10% fetal calf serum and 1% antibiotic-antimycotic at 37° C. in 7% CO2 in air. Cultures may be passaged weekly in trypsin-EDTA and seeded onto tissue culture plastic at 20,000 cells/cm^2. Endothelial cultures may be used at 1 week in culture, which is approximately 3 days after culture confluency is established. The cells may be seeded onto coverslips and treated (e.g., for 30 minutes) with modulating agent or a control compound at, for example, 500 μg/ml and then fixed with 1% paraformaldehyde. As noted above, disruption of cell adhesion may be determined visually within 24 hours, by observing retraction of the cells from one another. This assay evaluates the effect of a modulating agent on N-cadherin mediated cell adhesion.
Bovine pulmonary artery endothelial cells were harvested by sterile ablation and digestion in 0.1% collagenase (type II; Worthington Enzymes, Freehold, N.J.). Cells were maintained in Dulbecco's […] essential medium (Clonetics, San Diego, Calif.) supplemented with 10% fetal calf serum (Atlantic Biologicals, Nor cross, Ga.) and 1% antibiotic-antimycotic at 37° C. in 7% CO2 in air. Cultures were passaged weekly in trypsin-EDTA (Gibco, Grand Island, N.Y.) and seeded onto tissue culture plastic at 20,000 cells/cm^2 for all experiments. Endothelial cultures were used at 1 week in culture, which is approximately 3 days after culture confluency was established. The cells used in all protocols were between 4th passage and 10th passage. The cells were seeded onto coverslips and treated 30 minutes with N-Ac-CHAVC-NH2 (SEQ ID NO:10) or N-Ac-CHGVC-NH2 (SEQ ID NO:20) at 500 μg/ml and then fixed with 1% paraformaldehyde.

The subject of another data set is IAFp2. The data set is classed as cell-based, human. Particulars: 3 h. The protocol: (§1) N-Ac-CHAVC-NH2 (SEQ ID NO:10) and the control peptide N-Ac-CHGVC-NH2 (SEQ ID NO:20) were evaluated for possible cytotoxic effects on human microvascular endothelial (HMVEC; Clonetics), human umbilical vein endothelial (HUVEC; ATCC #CRL-1730), IAFp2 (human fibroblast cell line; Institute Armand-Frapier, Montreal, Quebec), WI-38 (human fibroblast cell line; ATCC #CCL-75), MDA-MB231 (human breast cancer cell line; ATCC #HTB-26), and PC-3 (human prostate cancer cell line; ATCC #CRL-1435) cells utilizing the MTT assay (Plumb et al., Cancer Res. 49:4435-4440, 1989). Neither of the peptides was cytotoxic at concentrations up to and including 100 μM. Similarly, neither of the peptides was capable of inhibiting the proliferation of the above cell lines at concentrations up to 100 μM, as judged by ^3H-thymidine incorporation assays.

A further data set has as its system PC-3. The data set is classed as cell-based, human. Particulars: 3 h. As for the experimental part:
as §1

In the case of `CC[C@H](C)[C@@H]1NC(=O)[C@H](CC(=O)O)NC(=O)[C@H](C(C)C)NC(=O)[C@H](C)NC(=O)[C@H](Cc2c[nH]cn2)NC(=O)[C@H](C)NC(=O)[C@@H](NC(C)=O)CSSC[C@@H](C(N)=O)NC1=O` (Ac-CAHAVDIC-NH2; disulfide 1-8), on chick N-cadherin (NIH3T3, 250 μg/mL, 16-18 hours), the inhibition at 250 µg/mL was found to be 89.4%. Further, the “inhibitory activity on N-cadherin dependent neurite outgrowth, in words” value on chick N-cadherin is recorded as “reduced, but did not eliminate, the activity; also recorded: potent inhibitors of neurite outgrowth”. In addition, at chick N-cadherin (concentrations of 125 µg/mL or below), the “activity on N-cadherin dependent neurite outgrowth at lower concentration, in words” value is “lost activity”. Further, the IC50 in the data set “in vitro” is > 100 µM. Moreover, the “effect on endothelial cell monolayer / morphology” value in data set [1] is “had no effect on endothelial cell morphology; also recorded: neither of the cyclic peptides show activity”.

As for `CC(=O)N[C@H]1CSSC[C@@H](C(N)=O)NC(=O)[C@H](CC(=O)O)NC(=O)[C@H](C(C)C)NC(=O)[C@H](C)NC(=O)[C@H](Cc2c[nH]cn2)NC(=O)[C@H](C)NC1=O` [N-Ac-CAHAVDC-NH2, N-Ac-Cys-Ala-His-Ala-Val-Asp-Cys-NH2] (Ac-CAHAVDC-NH2; disulfide 1-7), the inhibition at 250 µg/mL at chick N-cadherin (NIH3T3, 250 μg/mL, 16-18 hours) was determined as 13.3 ± 8.3%. Further, the “inhibitory activity on N-cadherin dependent neurite outgrowth, in words” value at chick N-cadherin is “completely eliminated inhibitory activity”. For the same compound, in “in vitro”, the IC50 is > 100 µM. For the same compound, the “effect on endothelial cell monolayer / morphology” value in data set [1] is reported as “had a slight effect; also recorded: retracted from one another”.

In the case of `CC(=O)N[C@H]1CSSC[C@@H](C(N)=O)NC(=O)[C@H](C(C)C)NC(=O)[C@H](C)NC(=O)[C@H](Cc2c[nH]cn2)NC1=O` [N-Ac-CHAVC-NH2, N-Ac-Cys-His-Ala-Val-Cys-NH2], the “% Inhibition of N-cadherin dependent neurite outgrowth” value on chick N-cadherin (250 μg/mL, 16-18 hours) is 68.2 ± 5.1 (4) %. Also, on chick N-cadherin (NIH3T3, 125 μg/mL, 16-18 hours), the inhibition at 125 µg/mL stood at 33.2%. At chick N-cadherin (NIH3T3, 250 μg/mL, 16-18 hours), the inhibition at 250 µg/mL came out at 68.2%. Moreover, the “effect on the N-cadherin response, in words” value on chick N-cadherin (concentrations up to 62 μg/ml) is listed as “no significant effect on the N-cadherin response”. The response at chick N-cadherin (from dose-response curve) was half-maximal at 220 µM (EC50). Besides, the “effect on endothelial cell monolayer / morphology” value in data set [1] is “disrupted the endothelial cell monolayer; also recorded: retracted from one another”. Moreover, the IC50 in the data set with IAFp2 and in the data set on PC-3 was > 100 µM in each case.

Take `CC(=O)N[C@H]1CSSC[C@@H](C(N)=O)NC(=O)[C@H](CO)NC(=O)[C@H](C(C)C)NC(=O)[C@H](C)NC(=O)[C@H](Cc2c[nH]cn2)NC1=O` [N-Ac-CHAVSC-NH2, N-Ac-Cys-His-Ala-Val-Ser-Cys-NH2] (Ac-CHAVSC-NH2; disulfide 1-6): the inhibition at 250 µg/mL against chick N-cadherin (NIH3T3, 250 μg/mL, 16-18 hours) was -2.5 ± 7.4%. Moreover, the “reduction in inhibitory activity on flanking HAV with E-cadherin amino acids” value on chick N-cadherin (Table 8, 250 μg/mL) was “complete”. Moreover, the IC50 in “in vitro” was > 100 µM. Besides, in data set [1], the “effect on endothelial cell monolayer / morphology” value is reported as “had no effect on endothelial cell morphology”.

In the case of `CC(=O)N[C@H]1CSSC[C@@H](C(N)=O)NC(=O)[C@H](C(C)C)NC(=O)CNC(=O)[C@H](Cc2c[nH]cn2)NC1=O` [N-Ac-CHGVC-NH2, reference compound], the inhibition at 250 µg/mL against chick N-cadherin (NIH3T3, 250 μg/mL, 16-18 hours) was determined as 4.8 ± 5.3%. In addition, the “effect on endothelial cell monolayer / morphology” value in data set [1] was “inactive”. In addition, the IC50 in the data set with IAFp2 and in the data set with PC-3 was > 100 µM throughout.
